Measured values: ChEMBL document CHEMBL1201862, “PubChem BioAssay data set” (2004)
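Results reflect a 48-hour exposure of cells in 96-well plates to compound at five concentrations. GI50 marks 50% less growth.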 Active and inactive are the calls of the source. No stated cut-off is given here; in the data, active = GI50 up to about 1.1 µM and inactive = higher.

Assays:
Experiment in all cases: inhibition of tumour cell growth, NCI panel, 48 h
[1] = system: A549
[2] = system: CAKI-1
[3] = system: DU-145
[4] = system: EKVX
[5] = system: HOP-92
[6] = system: HT-29
[7] = system: MOLT-4
[8] = system: Malme-3M
[9] = system: NCI-H226
[10] = system: NCI-H460
[11] = system: NCI-H522
[12] = system: NCI/ADR-RES
[13] = system: OVCAR-3
[14] = system: OVCAR-8
[15] = system: SF-268
[16] = system: SK-MEL-28
[17] = system: SN12C
[18] = system: SNB-19
[19] = system: SW-620
[20] = system: TK-10

Structure (SMILES)	GI50 [1]	GI50 [2]	GI50 [3]	GI50 [4]	GI50 [5]	GI50 [6]	GI50 [7]	GI50 [8]	GI50 [9]	GI50 [10]	GI50 [11]	GI50 [12]	GI50 [13]	GI50 [14]	GI50 [15]	GI50 [16]	GI50 [17]	GI50 [18]	GI50 [19]	GI50 [20]
C/C(=N/O)c1cccc(Nc2nc3ccccc3c3[nH]c4ccccc4c23)c1	2.22 µM (inactive)	2.75 µM (inactive)	1.74 µM (inactive)	2.29 µM (inactive)	2.51 µM (inactive)	1.57 µM (inactive)	0.879 µM (active)	3.92 µM (inactive)	4.8 µM (inactive)	1.64 µM (inactive)	1.5 µM (inactive)	2.99 µM (inactive)	2.22 µM (inactive)	2.65 µM (inactive)	1.87 µM (inactive)	3.6 µM (inactive)	3.4 µM (inactive)	4.08 µM (inactive)	1.63 µM (inactive)	4.6 µM (inactive)
Cc1n[nH]c(=O)n1N=C(c1ccccc1)c1ccccc1	> 100 µM (inactive)	> 100 µM (inactive)	> 100 µM (inactive)	> 100 µM (inactive)	> 100 µM (inactive)	> 100 µM (inactive)	> 100 µM (inactive)	24.9 µM (inactive)	> 100 µM (inactive)	> 100 µM (inactive)	> 100 µM (inactive)	> 100 µM (inactive)	> 100 µM (inactive)	> 100 µM (inactive)	> 100 µM (inactive)	> 100 µM (inactive)	> 100 µM (inactive)	> 100 µM (inactive)	> 100 µM (inactive)	> 100 µM (inactive)
c1ccc(C2=C(c3ccccc3)Sc3nnc(CCCCCCCCc4nnc5n4NC(c4ccccc4)=C(c4ccccc4)S5)n3N2)cc1	34.7 µM (inactive)	> 100 µM (inactive)	> 100 µM (inactive)	35.5 µM (inactive)	54.8 µM (inactive)	31.8 µM (inactive)	17.9 µM (inactive)	> 100 µM (inactive)	> 100 µM (inactive)	48.9 µM (inactive)	51.2 µM (inactive)	45.8 µM (inactive)	39.8 µM (inactive)	48.6 µM (inactive)	83 µM (inactive)	> 100 µM (inactive)	77.3 µM (inactive)	54.6 µM (inactive)	> 100 µM (inactive)	44.2 µM (inactive)
CN1C2CCC1CC(CCNC(c1ccccc1)c1ccccc1)C2 (stereo not given)	71 µM (inactive)	59.7 µM (inactive)	> 100 µM (inactive)	24.9 µM (inactive)	18 µM (inactive)	15.2 µM (inactive)	25.4 µM (inactive)	17.3 µM (inactive)	36.9 µM (inactive)	83.9 µM (inactive)	25.2 µM (inactive)	> 100 µM (inactive)	47.4 µM (inactive)	57 µM (inactive)	35.3 µM (inactive)	17.3 µM (inactive)	83 µM (inactive)	> 100 µM (inactive)	79.6 µM (inactive)	22.2 µM (inactive)
N#Cc1c2c(c(Nc3ccc(F)cc3)n3c1nc1ccccc13)CCCC2	97.9 µM (inactive)	> 52.2 µM (inactive)	> 48.5 µM (inactive)	> 100 µM (inactive)	26.9 µM (inactive)	> 100 µM (inactive)	6.32 µM (inactive)	> 100 µM (inactive)	> 80 µM (inactive)	23.1 µM (inactive)	> 62.1 µM (inactive)	> 100 µM (inactive)	> 100 µM (inactive)	> 67.3 µM (inactive)	> 100 µM (inactive)	> 100 µM (inactive)	> 100 µM (inactive)	26.7 µM (inactive)	> 54 µM (inactive)	18.9 µM (inactive)
